Nine compounds from patent publication US20130266636A1, “METHODS FOR BLOCKING CELL PROLIFERATION AND TREATING DISEASES AND CONDITIONS RESPONSIVE TO CELL GROWTH INHIBITION” (THE REGENTS OF THE UNIVERSITY OF CALIFORNIA, priority 2010, published 2013) can be followed below.

For experiment [1], the system named is human lung (A549) carcinoma cell line. Put plainly: Cell viability assay in A549 cells. The experiment is classed as cell-based. The conditions noted are these: for cell viability / potency relative to KG5 (cell viability EC50s): A549; for EC50: A549 lung cancer cells.
Experiment [2] concerns human breast (MDA-MB-231) carcinoma cell line. Put plainly: Cell viability assay in MDA-MB-231 cells. The format is cell-based. The conditions noted are these: for cell viability / potency relative to KG5 (cell viability EC50s): MDA-MB-231; for EC50: MDA-MB-231 breast cancer cell viability assays.
In experiment [3] the test system is human breast (T47D) carcinoma cell line. Put plainly: Cell viability assay in T47D cells. The format is cell-based. The conditions noted are these: for cell viability / potency relative to KG5 (cell viability EC50s): T47D; for EC50: T47D breast cancer cells.
The next experiment relates to A549 cells. Put plainly: Cell proliferation assay in A549 cells. The experiment is classed as cell-based, human.
The test system of another experiment is XPA-1 cells. In words: Cell cycle analysis, bright field and confocal microscopy of XPA-1 cells. The experiment is classed as cell-based, human. The conditions noted are these: XPA-1 cells, 20 hours. The procedure: FIG. 38. […] FIG. 38(a) Bright field images (scale bar, 20 μm), cell cycle analysis and confocal microscopy images (scale bar, 10 μm, laminB in red and DNA in blue) of XPA-1 cells treated for 20 hours with the allosteric RAF inhibitor KG5, the ATP-competitive inhibitor Sorafenib, the MEK inhibitor PD0325901, the control compound KG1 at 5 μM or paclitaxel at 200 nM. Cells were harvested after 20 hours and the cell cycle stage was determined by flow cytometry and confocal microscopy. White arrows indicate cells arrested at pro-metaphase. Scale bars, 10 μm. FIG. 38(b) Representative confocal microscopy images of untreated XPA-1 tumor cells undergoing mitosis (left image) and XPA-1 cell arrested with KG5 at pro-metaphase (right image). Cells were stained with α-tubulin in red and DNA in blue. Scale bar, 10 μm. FIG. 38(c) XPA-1 cells transfected with a vector control or active MEK were treated with 1 μM KG5 for 20 hours or left untreated and the G2/M population was quantified by flow cytometry. Error bars represent s.d. (n=3); * two tailed p value=0.00063 using a Mann Whitney U test. FIG. 38(d) Immunoblot analysis of XPA-1 cells untreated or treated with 1 μM KG5 for 18 hours. Data are representative of four independent experiments. […] Error bars represent s.d. (n=3); * two tailed p value=0.010 using a Mann Whitney U test. Inset, Immunoblot analysis of HCT-116 cells untreated or treated with 1 μM KG5 for 18 hours.
FIG. 39. […] FIG. 39 graphically illustrates cell cycle analysis of XPA-1 cells treated with the allosteric RAF inhibitor KG5, the microtubule stabilizer paclitaxel, or the ATP-competitive RAF inhibitors sorafenib, L-779450, GW 5074, and ZM-336372. Cells were harvested after 6, 18, 24, 48 and 72 hours and the percentages of cells in G2/M and SubG1 were determined by flow cytometry. Data are representative of three independent experiments.
Cell cycle analysis was performed by flow cytometry following propidium iodide staining. Briefly, cells were harvested, fixed with ice cold methanol, treated for 45 min with 10 μg/ml of RNase and resuspended in PBS containing 10 μg/ml of PI, and analyzed by flow cytometry. Cell cycle analysis was performed in cells treated for 18 hours with the allosteric RAF inhibitor KG5, the ATP-competitive RAF inhibitors: sorafenib, L-779450, GW5074, and ZM-336372, the MEK inhibitor (PD0325901) at […] concentration or paclitaxel at 100 nM.

The target of another experiment is CRAF (Homo sapiens, UniProt P04049). Put plainly: CRAF localization to the mitotic spindle, confocal microscopy of XPA-1 cells. The experiment is classed as cell-based. Also on record: total CRAF and total MEK of lysates from XPA-1 cells treated with PD0325901, Sorafenib, L-779450, PLX4720, KG5 or KG1; endogenous in cells; host or cells: XPA-1. The text has this: FIG. 35. […] Data are representative of three independent experiments. FIG. 35 (b) Confocal microscopy images of human pancreatic XPA-1 and glioblastoma U251 cells during mitosis, stained for phospho-5338 CRAF (in green), α-tubulin (in red) and DNA (TOPRO-3™ in blue). Scale bar, 10 μm. White arrows indicate localization of phospho-S338 CRAF at the mitotic spindle. FIG. 35 (c) Immunoblot analysis of γ-tubulin immunoprecipitates from human colon carcinoma HCT-116 cells asynchronized and synchronized at pro-metaphase. Data are representative of three independent experiments. FIG. 35(d) Immunohistochemical staining of phospho-S338 CRAF in tumor biopsies from breast cancer patients. Scale bar, 10 μm. FIG. 35(e) Confocal microscopy images of XPA-1 cells treated with KG5, sorafenib, ZM336372, L779450 or paclitaxel and stained for CRAF (in green), γ-tubulin (in red) and DNA (TOPRO-3™ in blue). Scale bar, 10 μm. White arrows indicate localization of CRAF at the spindle pole. White circle indicates the absence of CRAF at the spindle pole.
Cells attached to cover-slips were fixed with cold methanol and permeabilized in PBS containing 0.1% triton for two minutes and blocked for 60 minutes, at room temperature with 2% BSA in PBS. Cells were stained with antibodies to CRAF (Abcam), phospho-serine 338 CRAF (SantaCruz), phospho-serine 338 CRAF (Thermo Scientific), a tubulin (Calbiochem), γ tubulin (Abcam), laminB (SantaCruz), Plk1 (Abcam), phospho-T210 Plk1 (Abcam), or phospho-T288 Aurora A (cell signaling). All primary antibodies were used at 1:100 dilution, for two hours at room temperature. After washing several times with PBS, cells were stained for two hours at room temperature, with secondary antibody specific for mouse, rabbit or goat (Invitrogen), as appropriate, diluted 1:300 and co-incubated with the DNA dye TOPRO-3™ (1:500) (Invitrogen). Samples were mounted in VECTASHIELD™ hard-set mounting media (Vector Laboratories) and imaged on a Nikon ECLIPSE C1™ confocal microscope with a 1.4 NA 60× oil-immersion lens, using minimum pinhole (30 μm). Images were captured using EZ-C1-3.50 imaging software.

The structures appear in SMILES notation. Entries after “also recorded” stand apart in the source; their conditions may differ.

Chain of CRAF (P04049 whole entry): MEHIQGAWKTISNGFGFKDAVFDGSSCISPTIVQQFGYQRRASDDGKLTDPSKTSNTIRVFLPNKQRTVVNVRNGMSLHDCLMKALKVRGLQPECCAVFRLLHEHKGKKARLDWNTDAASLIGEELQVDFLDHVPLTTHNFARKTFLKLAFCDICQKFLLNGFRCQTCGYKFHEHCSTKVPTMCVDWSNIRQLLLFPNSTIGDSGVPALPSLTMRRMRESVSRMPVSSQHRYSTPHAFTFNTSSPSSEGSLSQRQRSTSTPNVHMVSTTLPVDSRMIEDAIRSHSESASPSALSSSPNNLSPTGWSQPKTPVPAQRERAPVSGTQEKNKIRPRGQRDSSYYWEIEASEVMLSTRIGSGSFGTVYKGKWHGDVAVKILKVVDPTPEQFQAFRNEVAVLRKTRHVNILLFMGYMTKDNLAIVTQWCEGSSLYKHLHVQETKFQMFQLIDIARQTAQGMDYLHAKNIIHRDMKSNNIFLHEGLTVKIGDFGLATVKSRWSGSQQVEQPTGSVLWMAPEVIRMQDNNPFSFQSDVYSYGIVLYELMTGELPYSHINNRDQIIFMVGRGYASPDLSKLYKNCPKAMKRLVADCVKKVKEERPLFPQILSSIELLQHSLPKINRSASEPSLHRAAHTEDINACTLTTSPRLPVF

With `CSc1nc(N)cc(Oc2ccc(-c3nnc(Nc4cc(C)ccc4C)[nH]3)cc2)n1` [H3-3, 6-(4-{5-[(2,5-dimethylphenyl)amino]-4H-1,2,4-triazol-3-yl}phenoxy)-2-(methylsulfanyl)pyrimidin-4-amine], in experiment [1], the cell viability entry is on record as “decrease cell viability”, the “potency relative to KG5 (cell viability EC50s)” value (shortened to “potency relative to KG5”) is on record as “more potent than KG5” and the EC50 result is “approach picomolar (pM) EC50s”. In experiment [2], the cell viability entry is recorded as “decrease cell viability”, the “potency relative to KG5” value was “more potent than KG5” and the EC50 result is “approach picomolar (pM) EC50s”. In experiment [3], the cell viability result was “decrease cell viability”, the “potency relative to KG5” value is on record as “more potent than KG5” and the EC50 entry is on record as “approach picomolar (pM) EC50s”.
For the compound `CSc1nc(N)cc(Oc2ccc(-c3nnc(Nc4cc(C)cc(C)c4)[nH]3)cc2)n1` [H3-7, 6-(4-{5-[(3,5-dimethylphenyl)amino]-4H-1,2,4-triazol-3-yl}phenoxy)-2-(methylsulfanyl)pyrimidin-4-amine], the cell viability entry in experiment [1], in experiment [2] and in experiment [3] was “decrease cell viability” in each case. In addition, the “potency relative to KG5” value in experiment [1], in experiment [2] and in experiment [3] was “more potent than KG5” in each case. In addition, the EC50 result in experiment [1], in experiment [2] and in experiment [3] was “approach picomolar (pM) EC50s” each time.
Turning to `CSc1nc(N)cc(Oc2ccc(-c3nnc(Nc4ccc(C)c(C)c4)[nH]3)cc2)n1` [H3-9, 6-(4-{5-[(3,4-dimethylphenyl)amino]-4H-1,2,4-triazol-3-yl}phenoxy)-2-(methylsulfanyl)pyrimidin-4-amine], in experiment [2], the cell viability result is recorded as “decrease cell viability”, the “potency relative to KG5” value is “more potent than KG5” and the EC50 result is given as “approach picomolar (pM) EC50s”.
With `CSc1nc(N)cc(Oc2ccc(-c3nnc(Nc4cccc(C)c4C)[nH]3)cc2)n1` [H3-11, 6-(4-{5-[(2,3-dimethylphenyl)amino]-4H-1,2,4-triazol-3-yl}phenoxy)-2-(methylsulfanyl)pyrimidin-4-amine], in experiment [2], the cell viability result was “decrease cell viability”, the “potency relative to KG5” value was “more potent than KG5” and the EC50 result is “approach picomolar (pM) EC50s”.
Turning to `CSc1nc(N)cc(Oc2ccc(-c3nnc(Nc4cccc5c4CCCC5)[nH]3)cc2)n1` [H3-21, 2-(methylsulfanyl)-6-{4-[5-(5,6,7,8-tetrahydronaphthalen-1-ylamino)-4H-1,2,4-triazol-3-yl]phenoxy}pyrimidin-4-amine], in experiment [1], the cell viability entry is on record as “decrease cell viability”, the “potency relative to KG5” value is “more potent than KG5” and the EC50 entry is “approach picomolar (pM) EC50s”. In experiment [2], the cell viability entry is “decrease cell viability”, the “potency relative to KG5” value is on record as “more potent than KG5” and the EC50 result is given as “approach picomolar (pM) EC50s”. For the same compound, in experiment [3], the cell viability result is recorded as “decrease cell viability”, the “potency relative to KG5” value is recorded as “more potent than KG5” and the EC50 entry is “approach picomolar (pM) EC50s”.
Consider `CCOc1nc(N)cc(Oc2ccc(-c3nnc(Nc4cccc(C(F)(F)F)c4)[nH]3)cc2)n1` [K1-72, 2-ethoxy-6-[4-(5-{[3-(trifluoromethyl)phenyl]amino}-4H-1,2,4-triazol-3-yl)phenoxy]pyrimidin-4-amine], for which, in experiment [2], the cell viability result is on record as “decrease cell viability”, the “potency relative to KG5” value is listed as “more potent than KG5” and the EC50 entry was “approach picomolar (pM) EC50s”.
With `CCCS(=O)(=O)Nc1ccc(F)c(C(=O)c2c[nH]c3ncc(-c4ccc(Cl)cc4)cc23)c1F` [PLX4032], in the experiment with A549 cells, the cell proliferation entry is “induce proliferation”.
Consider `CNC(=O)c1cc(Oc2ccc(NC(=O)Nc3ccc(Cl)c(C(F)(F)F)c3)cc2)ccn1` [Sorafenib], for which, in the experiment on XPA-1 cells, the “arrest at pro-metaphase (confocal microscopy)” value is listed as “does not arrest cells at pro-metaphase”. The cell proliferation result in the experiment with A549 cells was “induce proliferation”. Also, at CRAF, the “CRAF localization to the mitotic spindle” value is listed as “does not prevent CRAF localization to the mitotic spindle or midbodies”.
For `CC(=O)O[C@H]1C(=O)[C@@]2(C)[C@H]([C@H](OC(=O)c3ccccc3)[C@]3(O)C[C@H](OC(=O)[C@H](O)[C@@H](NC(=O)c4ccccc4)c4ccccc4)C(C)=C1C3(C)C)[C@]1(OC(C)=O)CO[C@@H]1C[C@@H]2O` [paclitaxel], in the experiment on XPA-1 cells, the “arrest at pro-metaphase (confocal microscopy)” value is “arrests cells at pro-metaphase”. Besides, the “CRAF localization to the mitotic spindle” value on CRAF was “does not affect CRAF localization to the mitotic spindle; also recorded: CRAF remained localized to the mitotic spindle”.
